Laboratory results as given in ChEMBL document CHEMBL1139385, “Structural analysis of ARC-type inhibitor (ARC-1034) binding to protein kinase A catalytic subunit and rational design of bisubstrate analogue inhibitors of basophilic protein kinases” (J Med Chem, 2009).

Assays:
[1] = target: T1, cAMP-dependent protein kinase catalytic subunit alpha (Homo sapiens, UniProt P17612); test: Binding affinity to PKA catalytic subunit alpha by fluorescence polarization assay
[2] = target: Rho-associated protein kinase 2 (Bos taurus) (UniProt Q28021); test: Binding affinity to ROCK2 by fluorescence polarization assay
Chain of Rho-associated protein kinase 2 (Bos taurus) (Q28021 whole entry, looked up): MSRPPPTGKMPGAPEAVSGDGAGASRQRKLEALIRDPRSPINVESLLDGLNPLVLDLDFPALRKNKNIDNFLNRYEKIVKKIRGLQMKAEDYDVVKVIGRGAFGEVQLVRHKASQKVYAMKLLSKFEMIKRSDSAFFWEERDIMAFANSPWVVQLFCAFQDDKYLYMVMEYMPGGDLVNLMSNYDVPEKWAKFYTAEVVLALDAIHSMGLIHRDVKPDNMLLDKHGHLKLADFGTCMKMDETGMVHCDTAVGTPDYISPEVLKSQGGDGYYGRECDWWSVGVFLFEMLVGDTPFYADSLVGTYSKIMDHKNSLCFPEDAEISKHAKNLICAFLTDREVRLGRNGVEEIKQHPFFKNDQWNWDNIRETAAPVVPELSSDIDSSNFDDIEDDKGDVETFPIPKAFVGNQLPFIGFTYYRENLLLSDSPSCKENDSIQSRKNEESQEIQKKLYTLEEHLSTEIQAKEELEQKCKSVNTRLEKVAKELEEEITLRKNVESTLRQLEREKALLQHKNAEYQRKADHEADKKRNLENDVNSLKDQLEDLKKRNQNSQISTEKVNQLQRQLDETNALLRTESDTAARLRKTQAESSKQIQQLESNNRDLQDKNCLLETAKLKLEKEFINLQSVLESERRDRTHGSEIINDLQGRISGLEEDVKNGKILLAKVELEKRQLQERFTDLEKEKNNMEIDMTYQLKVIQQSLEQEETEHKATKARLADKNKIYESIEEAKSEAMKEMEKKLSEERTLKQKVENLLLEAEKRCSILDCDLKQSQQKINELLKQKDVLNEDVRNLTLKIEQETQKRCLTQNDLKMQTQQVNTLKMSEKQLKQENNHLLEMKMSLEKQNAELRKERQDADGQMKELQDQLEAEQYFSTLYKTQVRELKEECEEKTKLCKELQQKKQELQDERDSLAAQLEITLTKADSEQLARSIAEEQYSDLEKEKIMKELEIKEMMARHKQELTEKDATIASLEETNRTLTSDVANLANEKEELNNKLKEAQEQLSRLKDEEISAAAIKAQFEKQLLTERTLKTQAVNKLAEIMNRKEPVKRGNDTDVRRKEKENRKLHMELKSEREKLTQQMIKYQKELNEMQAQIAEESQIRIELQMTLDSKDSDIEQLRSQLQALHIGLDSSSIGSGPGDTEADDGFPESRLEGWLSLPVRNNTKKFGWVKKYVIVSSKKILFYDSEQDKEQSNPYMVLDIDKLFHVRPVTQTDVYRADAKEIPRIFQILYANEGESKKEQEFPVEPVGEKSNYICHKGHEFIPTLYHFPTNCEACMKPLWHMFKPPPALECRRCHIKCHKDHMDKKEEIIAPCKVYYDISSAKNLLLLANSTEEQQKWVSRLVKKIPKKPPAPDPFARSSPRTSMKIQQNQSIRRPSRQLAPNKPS

[3] = target: T1, cAMP-dependent protein kinase catalytic subunit alpha; test: Inhibition of PKA catalytic subunit alpha using 100 uM ATP and 30 uM TAMRA-kemptide substrate by fluorometric TLC assay
[4] = target: RAC-gamma serine/threonine-protein kinase (Homo sapiens, UniProt Q9Y243); test: Inhibition of PKBgamma using 100 uM ATP and 30 uM TAMRA-kemptide substrate by fluorometric TLC assay
Chain of RAC-gamma serine/threonine-protein kinase (Q9Y243 whole entry): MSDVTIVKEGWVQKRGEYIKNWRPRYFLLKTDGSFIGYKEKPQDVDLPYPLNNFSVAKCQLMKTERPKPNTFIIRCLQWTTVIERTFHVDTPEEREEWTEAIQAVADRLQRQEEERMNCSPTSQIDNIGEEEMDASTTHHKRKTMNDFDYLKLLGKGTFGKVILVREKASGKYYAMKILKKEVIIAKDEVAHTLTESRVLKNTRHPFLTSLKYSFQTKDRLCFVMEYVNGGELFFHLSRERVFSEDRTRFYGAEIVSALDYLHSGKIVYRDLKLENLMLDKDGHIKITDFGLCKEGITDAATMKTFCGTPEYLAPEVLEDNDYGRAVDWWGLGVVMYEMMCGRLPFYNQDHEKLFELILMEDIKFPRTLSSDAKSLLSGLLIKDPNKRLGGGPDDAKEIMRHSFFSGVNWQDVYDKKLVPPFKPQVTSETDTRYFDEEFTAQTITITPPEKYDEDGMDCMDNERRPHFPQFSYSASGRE

Row | Kd [2] [µM] | IC50 [3] [µM] | IC50 [4] [µM] | SMILES | Kd [1] [µM]
1 | 0.0014 | 0.054 | 0.774 | NCCCC[C@@H](NC(=O)CCCCCNC(=O)[C@H]1O[C@@H](n2cnc3c(N)ncnc32)[C@H](O)[C@@H]1O)C(=O)NCCCCCC(=O)N[C@H](CCCN=C(N)N)C(=O)N[C@H](CCCN=C(N)N)C(N)=O | 0.0076
2 |  |  |  | NCCCC[C@H](NC(=O)CCCCCNC(=O)[C@H]1O[C@@H](n2cnc3c(N)ncnc32)[C@H](O)[C@@H]1O)C(=O)NCCCCCC(=O)N[C@H](CCCN=C(N)N)C(=O)N[C@H](CCCN=C(N)N)C(N)=O | 0.594
3 |  |  |  | NC(=O)[C@@H](CCCN=C(N)N)NC(=O)[C@@H](CCCN=C(N)N)NC(=O)CCCCCNC(=O)CCCCCNC(=O)[C@H]1O[C@@H](n2cnc3c(N)ncnc32)[C@H](O)[C@@H]1O | 0.083
4 |  |  |  | NC(=O)[C@H](Cc1ccc(C(=O)c2ccccc2)cc1)NC(=O)CCCCCNC(=O)[C@H]1O[C@@H](n2cnc3c(N)ncnc32)[C@H](O)[C@@H]1O | > 100
5 |  |  |  | NC(=O)[C@@H](Cc1ccc(C(=O)c2ccccc2)cc1)NC(=O)CCCCCNC(=O)[C@H]1O[C@@H](n2cnc3c(N)ncnc32)[C@H](O)[C@@H]1O | 1.96
6 |  |  |  | N=C(N)NCCC[C@@H](NC(=O)[C@@H](CCCNC(=N)N)NC(=O)CCCNC(=O)CCCCCNC(=O)[C@H]1O[C@@H](n2cnc3c(N)ncnc32)[C@H](O)[C@@H]1O)C(N)=O | 0.247
7 |  |  |  | N=C(N)NCCC[C@@H](NC(=O)[C@@H](CCCNC(=N)N)NC(=O)CCCCCCCNC(=O)[C@@H](CCCCN)NC(=O)CCCCCNC(=O)[C@H]1O[C@@H](n2cnc3c(N)ncnc32)[C@H](O)[C@@H]1O)C(N)=O | 0.0095
8 |  |  |  | NC(=O)CCCNC(=O)OC[C@H]1O[C@@H](n2cnc3c(N)ncnc32)[C@H](O)[C@@H]1O | 98.7
9 |  |  |  | NCCCCNC(=O)CCCCCNC(=O)[C@H]1O[C@@H](n2cnc3c(N)ncnc32)[C@H](O)[C@@H]1O | 1.64
10 |  |  |  | Nc1ncnc2c1ncn2[C@@H]1O[C@H](C(=O)NCCCCCC(=O)O)[C@@H](O)[C@H]1O | 55.8
11 |  |  |  | NCCCNC(=O)CCCCCNC(=O)[C@H]1O[C@@H](n2cnc3c(N)ncnc32)[C@H](O)[C@@H]1O | 6.05
12 | 0.187 | 0.0211 | 2.04 | C[C@@H](NC(=O)CCCCCNC(=O)[C@@H]1C[C@@H](O)[C@H](n2cnc3c(N)ncnc32)C1)C(=O)NCCCCCC(=O)N[C@H](CCCNC(=N)N)C(=O)N[C@H](CCCNC(=N)N)C(N)=O | 0.0018
13 |  |  |  | NCCCC[C@@H](NC(=O)CCCCCNC(=O)[C@H]1O[C@@H](n2cnc3c(N)ncnc32)[C@H](O)[C@@H]1O)C(=O)NCCCC(=O)N[C@H](CCCN=C(N)N)C(=O)N[C@H](CCCN=C(N)N)C(N)=O | 0.0126
14 | 0.119 | 0.097 | 3.75 | C[C@@H](NC(=O)CCCCCNC(=O)[C@H]1O[C@@H](n2cnc3c(N)ncnc32)[C@H](O)[C@@H]1O)C(=O)NCCCCCC(=O)N[C@H](CCCN=C(N)N)C(=O)N[C@H](CCCN=C(N)N)C(N)=O | 0.0058
15 |  |  |  | NCCCC[C@@H](NC(=O)CCCCCNC(=O)[C@H]1O[C@@H](n2cnc3c(N)ncnc32)[C@H](O)[C@@H]1O)C(=O)NCCCCCC(=O)N[C@@H](CCCN=C(N)N)C(=O)N[C@@H](CCCN=C(N)N)C(N)=O | 0.0087
16 |  |  |  | NC(=O)[C@@H](CCCN=C(N)N)NC(=O)[C@@H](CCCN=C(N)N)NC(=O)CCCCCCCNC(=O)CCCCCNC(=O)[C@H]1O[C@@H](n2cnc3c(N)ncnc32)[C@H](O)[C@@H]1O | 0.0954
17 |  |  |  | Nc1ncnc2c1ncn2[C@@H]1O[C@H](C(=O)NCCCCCC(=O)NCCO)[C@@H](O)[C@H]1O | 18.7
18 |  |  |  | NC(=O)CCCCCNC(=O)OC[C@H]1O[C@@H](n2cnc3c(N)ncnc32)[C@H](O)[C@@H]1O | 52.1
19 |  |  |  | Nc1ncnc2c1ncn2[C@@H]1O[C@H](C(=O)NCCCCCC(=O)NCc2ccccc2)[C@@H](O)[C@H]1O | 13.5
20 |  |  |  | NCCNC(=O)CCCCCNC(=O)[C@H]1O[C@@H](n2cnc3c(N)ncnc32)[C@H](O)[C@@H]1O | 8.23
21 |  |  |  | NCCCC[C@@H](NC(=O)CCCCCNC(=O)[C@H]1O[C@@H](n2cnc3c(N)ncnc32)[C@H](O)[C@@H]1O)C(N)=O | 0.443
22 | < 0.001 | 0.0134 | 0.0566 | NCCCC[C@@H](NC(=O)CCCCCNC(=O)[C@H]1O[C@@H](n2cnc3c(N)ncnc32)[C@H](O)[C@@H]1O)C(=O)NCCCCCC(=O)N[C@H](CCCN=C(N)N)C(=O)N[C@H](CCCN=C(N)N)C(=O)N[C@H](CCCN=C(N)N)C(=O)N[C@H](CCCN=C(N)N)C(N)=O | 0.0005

Row | SMILES | Kd [2] [µM] | IC50 [3] [µM] | IC50 [4] [µM] | Kd [1] [µM]
23 | NC(=O)[C@@H](CCCN=C(N)N)NC(=O)[C@@H](CCCN=C(N)N)NC(=O)CCCCCNC(=O)[C@H]1O[C@@H](n2cnc3c(N)ncnc32)[C@H](O)[C@@H]1O |  | 2.6 |  | 
24 | NC(=O)CCCCCNC(=O)[C@H]1O[C@@H](n2cnc3c(N)ncnc32)[C@H](O)[C@@H]1O | 4.48 | 26 | > 1000 | 2.18
25 | NC(=O)[C@@H](CCCN=C(N)N)NC(=O)CCCCCNC(=O)[C@H]1O[C@@H](n2cnc3c(N)ncnc32)[C@H](O)[C@@H]1O | 0.0897 | 2.1 | 1.61 | 0.249
